For data set [1], the system named is Trypanosoma cruzi. Kind of data set: (§1) DNDI: Chagas in Vitro. The data set is classed as functional, organism-based, Tulahuen C4 (LacZ).
Data set [2] in a line: DNDI: Cytotoxicity in vitro, against rat skeletal myoblast (L-6) cells. The settings on record: L-6 cells (skeletal myoblasts), IC50.
A short description of data set [3]: in vitro. The settings on record: mouse, microsomes.
Data set [4] has as its system Trypanosoma cruzi. Kind of data set: DNDI: Chagas in vivo at 20 mg/kg, 20 days 1x. The data set is classed as functional, Tulahuen Swiss po.
Data set [5] can be described thus: in vitro. The settings on record: human, microsomes, EH.
Data set [6] concerns Trypanosoma cruzi. Kind of data set: DNDI: Chagas in vivo at 20 mg/kg, 20 days 2x. The data set is classed as functional, Tulahuen Swiss po.
Data set [7] can be described thus: in vitro. The settings on record: mouse, microsomes. This is another data set of the same source.
A short description of data set [8]: in vitro. The settings on record: rat, hepatocytes.
A short description of data set [9]: in vitro. The settings on record: rat, microsomes.
The nature of data set [10]: DNDI: Protein binding in rat plasma. The data set is classed as ADME, cell-free. The settings on record: read-out: % bound (converted).
The nature of data set [11]: in vitro. The settings on record: rat, hepatocytes. The source holds these as a separate data set.
Data set [12] in a line: in vitro. The settings on record: rat, microsomes. The source holds these as a separate data set.
Data set [13] can be described thus: in vitro. The settings on record: mouse, microsomes. The source holds these as a separate data set.
Data set [14] can be described thus: DNDI: Protein binding in mouse plasma.
The nature of data set [15]: in vitro. The settings on record: human, microsomes.
A short description of data set [16]: in vitro. The settings on record: rat, microsomes. The source holds these as a separate data set.
The subject of data set [17] is Trypanosoma cruzi. Kind of data set: DNDI: Chagas in vivo at 50 mg/kg, 20 days 1x. The data set is classed as functional, Tulahuen Swiss po.
Data set [18] deals with Trypanosoma cruzi. The data set is described as §1. The data set is classed as functional, Tulahuen C4 (LacZ).
Data set [19] in a line: in vitro. The settings on record: human, microsomes, t (1 / 2).
The target of a further data set is Cytochrome P450 3A4 (Homo sapiens, UniProt P08684). Put plainly: DNDI: Human CYP3A4 inhibition determined using 6b-hydroxylation of testosterone.
For data set [20], the system named is Trypanosoma brucei rhodesiense. Put plainly: (§2) DNDI: HAT in Vitro. The data set is classed as functional, organism-based, ATCC 30027.
Data set [21] concerns Trypanosoma brucei brucei. Described as §2. The data set is classed as functional, organism-based. The settings on record: SBRI 427.
The test system of data set [22] is Leishmania infantum. Kind of data set: DNDI: Leish In Vivo - % inhibition and MSD at 50 mg/kg, 5 days 2x. The data set is classed as functional, MHOM/MA(BE)/67 Hamster-Early curative model po.
For data set [23], the system named is Leishmania infantum. Kind of data set: DNDI: Leish (macro) in Vitro. The data set is classed as functional, organism-based, MHOM/MA(BE)/67.
For data set [24], the system named is Trypanosoma brucei brucei. Kind of data set: DNDI: HAT in vivo at 50 mg/kg, 4 adm days. The data set is classed as functional, EATRO 110 po.
Data set [25] is described as follows: DNDI: Lipophilicity (gLogD) at pH 3. The settings on record: buffer, pH 3, logD.
The next data set has as its target T1, Cytochrome P450 1A2 (Homo sapiens, UniProt P05177).
T1 sequence (P05177 whole entry): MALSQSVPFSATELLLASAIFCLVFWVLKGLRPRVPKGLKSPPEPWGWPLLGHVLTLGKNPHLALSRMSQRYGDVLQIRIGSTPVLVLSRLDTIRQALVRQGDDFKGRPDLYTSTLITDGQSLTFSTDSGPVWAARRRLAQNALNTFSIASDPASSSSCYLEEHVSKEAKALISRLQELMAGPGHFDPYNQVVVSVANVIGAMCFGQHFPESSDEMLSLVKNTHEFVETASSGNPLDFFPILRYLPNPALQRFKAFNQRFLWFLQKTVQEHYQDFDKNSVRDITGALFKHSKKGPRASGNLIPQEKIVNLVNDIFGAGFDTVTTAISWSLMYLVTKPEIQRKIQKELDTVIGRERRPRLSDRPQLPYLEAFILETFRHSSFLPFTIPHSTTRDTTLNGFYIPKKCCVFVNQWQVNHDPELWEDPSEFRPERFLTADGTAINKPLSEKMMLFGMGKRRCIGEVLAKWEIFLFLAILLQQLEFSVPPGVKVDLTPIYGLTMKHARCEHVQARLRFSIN

A short description of data set [26]: DNDI: Permeability in CACO-2 cells at pH 7.4 (A to B). The data set is classed as ADME, cell-based. The settings on record: human, Caco-2, pH 7.4.
Another data set concerns the target Cytochrome P450 2D6 (Homo sapiens, UniProt P10635).
Data set [27] can be described thus: DNDI: Solubility in 0.01M HCl at pH 2 determined by nephelometry. The settings on record: 0.01M HCl, pH 2, Kinetic.
The target of the next data set is Cytochrome P450 2C19 (Homo sapiens, UniProt P33261).
Data set [28] can be described thus: DNDI: Lipophilicity (gLogD) at pH 7.4. The settings on record: buffer, pH 7.4, logD.
The next data set has as its target Cytochrome P450 2C9 (Homo sapiens, UniProt P11712).
Data set [29] can be described thus: DNDI: Metabolism. The data set is classed as ADME, Microsome. The settings on record: rat, microsomes.
[30] abbreviates: Trypanosoma cruzi, Tulahuen C4 (LacZ).

Values joined by “and” are separate entries in the source; they are usually repeats but may differ in a detail not shown here. Equal entries are not always repeated.

Sequence of Cytochrome P450 2C9 (P11712 whole entry): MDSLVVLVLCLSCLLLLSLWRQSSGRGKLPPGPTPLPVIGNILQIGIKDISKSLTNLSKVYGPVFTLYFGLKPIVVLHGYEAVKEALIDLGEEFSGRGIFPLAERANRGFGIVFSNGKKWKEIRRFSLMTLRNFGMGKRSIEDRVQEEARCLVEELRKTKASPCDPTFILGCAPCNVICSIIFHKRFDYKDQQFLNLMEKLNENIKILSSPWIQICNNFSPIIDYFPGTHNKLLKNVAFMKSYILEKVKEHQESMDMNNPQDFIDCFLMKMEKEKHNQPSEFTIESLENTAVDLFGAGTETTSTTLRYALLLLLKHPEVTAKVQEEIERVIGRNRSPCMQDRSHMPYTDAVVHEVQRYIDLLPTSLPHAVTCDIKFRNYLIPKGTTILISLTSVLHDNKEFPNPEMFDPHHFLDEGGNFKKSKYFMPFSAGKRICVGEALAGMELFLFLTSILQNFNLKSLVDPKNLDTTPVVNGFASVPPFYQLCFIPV
Sequence of Cytochrome P450 2D6 (P10635 whole entry): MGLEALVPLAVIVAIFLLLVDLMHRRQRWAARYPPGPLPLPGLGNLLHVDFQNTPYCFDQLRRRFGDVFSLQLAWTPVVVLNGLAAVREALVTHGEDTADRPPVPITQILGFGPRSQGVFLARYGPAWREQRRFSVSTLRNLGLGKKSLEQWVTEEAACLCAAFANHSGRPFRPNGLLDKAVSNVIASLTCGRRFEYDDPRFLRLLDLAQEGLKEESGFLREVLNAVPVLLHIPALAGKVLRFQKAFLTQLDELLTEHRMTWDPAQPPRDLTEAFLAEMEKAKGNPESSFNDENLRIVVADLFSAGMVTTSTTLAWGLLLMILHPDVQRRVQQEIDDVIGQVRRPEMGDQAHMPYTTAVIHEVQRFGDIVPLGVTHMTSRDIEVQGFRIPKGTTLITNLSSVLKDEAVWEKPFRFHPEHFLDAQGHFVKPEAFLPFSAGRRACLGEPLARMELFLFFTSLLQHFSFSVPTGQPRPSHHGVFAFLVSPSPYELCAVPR
Sequence of Cytochrome P450 2C19 (P33261 whole entry): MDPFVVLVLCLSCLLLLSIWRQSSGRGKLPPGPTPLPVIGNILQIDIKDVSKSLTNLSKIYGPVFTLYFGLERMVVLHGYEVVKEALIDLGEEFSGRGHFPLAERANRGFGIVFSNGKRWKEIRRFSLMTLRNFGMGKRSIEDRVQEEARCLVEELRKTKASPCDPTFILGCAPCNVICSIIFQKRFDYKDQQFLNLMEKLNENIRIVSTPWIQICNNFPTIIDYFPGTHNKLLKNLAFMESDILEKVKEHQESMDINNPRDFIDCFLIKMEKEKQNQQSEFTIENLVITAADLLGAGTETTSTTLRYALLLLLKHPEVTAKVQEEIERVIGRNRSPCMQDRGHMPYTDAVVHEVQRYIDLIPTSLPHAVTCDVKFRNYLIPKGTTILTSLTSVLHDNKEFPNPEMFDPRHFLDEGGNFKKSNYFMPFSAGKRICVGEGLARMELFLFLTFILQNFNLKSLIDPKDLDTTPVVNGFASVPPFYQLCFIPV
Sequence of Cytochrome P450 3A4 (P08684 whole entry): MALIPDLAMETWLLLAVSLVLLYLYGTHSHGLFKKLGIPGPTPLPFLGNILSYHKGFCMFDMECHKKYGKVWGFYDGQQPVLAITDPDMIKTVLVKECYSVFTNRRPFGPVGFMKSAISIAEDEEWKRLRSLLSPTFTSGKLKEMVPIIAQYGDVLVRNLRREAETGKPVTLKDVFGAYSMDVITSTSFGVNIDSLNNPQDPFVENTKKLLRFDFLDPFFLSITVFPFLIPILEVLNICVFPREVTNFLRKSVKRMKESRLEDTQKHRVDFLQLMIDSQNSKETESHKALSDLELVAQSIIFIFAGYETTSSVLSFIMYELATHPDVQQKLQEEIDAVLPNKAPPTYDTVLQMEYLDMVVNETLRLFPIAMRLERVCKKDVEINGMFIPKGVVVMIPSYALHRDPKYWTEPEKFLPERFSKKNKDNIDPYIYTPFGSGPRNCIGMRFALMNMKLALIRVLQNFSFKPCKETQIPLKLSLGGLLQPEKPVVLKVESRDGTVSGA

A word on the IC50: it is the concentration that inhibits the measured activity by half. Lower therefore signals greater potency. By microsomal CLint is commonly meant the rate of metabolic loss divided by the concentration. A lower microsomal CLint goes with greater metabolic stability. What is called half-life is the time needed for the level to fall by half in the phase considered. A word on the IC90: it is the concentration at which the effect reaches the 90% level. Lower therefore signals an effect from little substance. On to `CO/N=C(\C)c1ccc(-n2ccnc2)c(NC(=O)c2cnn(-c3ccccn3)c2)c1`, for which the IC50 in the data set on Trypanosoma cruzi [1] was 0.006 µM; in the data set on Trypanosoma cruzi [1] (setting [30]), 0.0067 µM; in data set [2] it was above 100 µM; on Cytochrome P450 3A4, 1.4 µM. For the same molecule, the microsomal CLint in “in vitro [3]” stood at 83 µL/min/mg; in the data set “in vitro [9]” it was 27 µL/min/mg; in “in vitro [15]”, 16 µL/min/mg. Moreover, the PCR cure rate in the data set with Trypanosoma cruzi [4], with Trypanosoma cruzi [6] and with Trypanosoma cruzi [17] was 0% in each case. In addition, the “Parasitemia clearance after immunosuppression” value with Trypanosoma cruzi [4], in the data set on Trypanosoma cruzi [6] and in the data set on Trypanosoma cruzi [17] was 0% throughout. The “Parasitemia clearance after treatment” value with Trypanosoma cruzi [4] is listed as 0%; in the data set with Trypanosoma cruzi [6], 80%; in the data set on Trypanosoma cruzi [17], 20%. For the same molecule, the hepatic extraction ratio in “in vitro [5]” came out at 0.38; in the data set “in vitro [7]”, 0.78; in “in vitro [11]”, 0.51; in “in vitro [12]” it was 0.47. The CLhep predicted in the data set “in vitro [8]” is 34.3 mL/min/kg. Moreover, the fraction unbound in data set [10] is 0.008; in data set [14], 0.022. Moreover, the half-life in “in vitro [13]” turned out to be 0.35 h; in “in vitro [16]”, 1.07 h; in “in vitro [19]”, 1.8 h. Also, the concentration for an effect of 90% (IC90) was found to be 0.014 µM in the data set on Trypanosoma cruzi [18] and 0.016 µM with Trypanosoma cruzi [18] (setting [30]).

As to `CN1CCC(NCC(O)COc2ccc3cc(Br)ccc3c2)CC1` (stereo not drawn), the half-inhibitory concentration (IC50) is 0.853 µM and 3.66 µM and 1.93 µM in the data set with Trypanosoma cruzi [1]; 0.028 µM and 0.0745 µM and 0.057 µM in [20]; 0.053 µM in [21]; 0.426 µM and 0.198 µM and 0.5 µM in the data set on Leishmania infantum [23]. Further, the “% inhibition in bone-marrow” value in the data set on Leishmania infantum [22] is reported as 41.4%. Moreover, the “% inhibition in liver” value with Leishmania infantum [22] came out at 26.8%. The “% inhibition in spleen” value with Leishmania infantum [22] was 44.9%. For the same molecule, in the data set on Trypanosoma cruzi [18], the IC90 is 5.67 µM and > 1 µM and 8.2 µM. The MSD in data set [24] came to 7 days.

Usually chromatographic logD stands for a lipophilicity value derived from retention on a column. Low readings indicate lower lipophilicity, high ones higher lipophilicity. What is called Papp A→B is how fast a substance crosses the layer from the apical side. A lower Papp A→B goes with poor permeation. By solubility (kinetic) is commonly meant the concentration staying in solution when a stock, usually in DMSO, is diluted into the medium. Turning to `N#Cc1ccc(-n2ccnc2)c(NC(=O)c2cnc(-c3ccccc3)s2)c1`, the IC50 with Trypanosoma cruzi [1] is 0.0115 µM and 0.0068 µM and 0.007 µM; in the data set with Trypanosoma cruzi [1] (setting [30]) it was 0.006 µM; in [2], above 100 µM; against Cytochrome P450 1A2, above 20 µM; in [20] (Trypanosoma brucei, ATCC 30027), above 10 µM; at Cytochrome P450 2D6, 2.7 µM. For the same molecule, the IC50 at Cytochrome P450 2C19 was 15.9 µM; on Cytochrome P450 2C9, above 20 µM. The results for the chromatographic logD in data set [25] and in data set [28] were 2.1 and 2.8, respectively. Besides, the microsomal CLint in the data set “in vitro [3]” is 31 µL/min/mg; in “in vitro [9]”, 24 µL/min/mg; in “in vitro [15]”, 11 µL/min/mg. In addition, in the data set with Trypanosoma cruzi [6], the PCR cure rate was 0%. In addition, the “Parasitemia clearance after immunosuppression” value with Trypanosoma cruzi [6] was found to be 0%. The “Parasitemia clearance after treatment” value in the data set with Trypanosoma cruzi [6] is 100%. Moreover, the Papp A→B in [26] amounted to 82 ×10⁻⁶ cm/s. In addition, the CLhep predicted in the data set “in vitro [8]” was 17.2 mL/min/kg. The kinetic solubility in data set [27] is above 100 µg/mL. In addition, the figures for the fraction unbound in data set [10] and in [14] were 0.043 and 0.064, respectively. The half-life in “in vitro [13]” amounted to 0.933 h; in the data set “in vitro [16]”, 1.22 h; in “in vitro [19]”, 2.53 h. The CLblood in data set [29] amounted to 25 mL/min/kg. Also, the IC90 in the data set with Trypanosoma cruzi [18] was 0.0205 µM and 0.047 µM and > 0.1 µM.
